{"source": "patent US10295529B2", "about": "“Feline bitter taste receptors and methods” (Applied Food Biotechnology, Inc., priority 2013, dated 2019)", "type_in_all_cases": "cell-based, feline", "key": {"fTAS2R38 [1]": {"system": "fTAS2R38", "experiment": "Fluo-4AM calcium assay, cells transiently expressing fTAS2R38 with Gα16gust44", "method": "(§1) Cell lines that transiently express a desired TAS2R disclosed herein are generated by transfecting the appropriate expression vector, e.g., pcDNA3.1D-FLAGV5His-TAS2R38, constructed as described above in Ex. 2A into cells of a eukaryotic cell line (e.g., ATCC #CRL-11268 or Life Technologies, Cat# R700-07).\n(§2) On day 0, 60,000 cells per well are plated on poly lysine coated, black 96 well plates with clear bottoms (Costar). The following day the cells are transfected with 150 ng TAS2R38 expression vector, e.g., pcDNA3.1D-FLAGV5His (Invitrogen) along with 45 ng of Gα16 chimera containing the last 44 amino acids of rat gustducin (Gα16gust44) with 0.5 ul Lipofectamine 2000 (Invitrogen) per well. Cells are then incubated 22-44 hours at 37° C. 5% CO2.\n(§3) The expression of fTAS2R38 is evaluated by testing for the presence of a functional response to a known hTAS2R38 ligand (e.g., PTC), determined via automated calcium imaging using a Fluo-4AM (Life Technologies Corporation) Calcium Assay. Fluo-4AM is a fluorescent indicator of intracellular calcium dynamics (change in concentration) and allows monitoring changes in the calcium concentration, particularly an increase in response to receptor activation occurring after agonist exposure.\n(§4) Testing for a functional response of fTAS2R38 to the known hTAS2R38 ligands, PTC and PROP, and of fTAS2R43 to the known hTAS2R43 ligands, aloin, denatonium and saccharine), was determined via automated calcium imaging using the Fluo-4AM (Life Technologies Corporation) Calcium Assay."}, "fTAS2R38 [2]": {"system": "fTAS2R38", "experiment": "Fluo-4AM calcium assay, stable Gα16-gustducin 44/TAS2R38 cell line", "text": "Fluo-4AM is a fluorescent indicator of intracellular calcium dynamics (change in concentration) and allows monitoring changes in the calcium concentration, particularly an increase in response to receptor activation occurring after agonist exposure."}, "fTAS2R43": {"system": "fTAS2R43", "experiment": "Fluo-4AM calcium assay, cells transiently expressing fTAS2R43 with Gα16gust44", "method": "as §1, §2, §3\nGeneration of cell lines transiently expressing the other fTAS2Rs disclosed herein is analogous.\nas §4"}}, "data": [{"smiles": "CCCc1cc(=O)[nH]c(=S)[nH]1", "note": "[PROP, 6-n-propylthiouracil]", "values": [{"measurement": "stimulation of receptor", "setting": "fTAS2R38 [1]; 30 μM PROP, transient expression", "result": "not stimulated"}, {"measurement": "activation of cell line", "setting": "fTAS2R38 [2]; 30 μm PROP", "result": "not activated"}]}, {"smiles": "NC(=S)Nc1ccccc1", "note": "[PTC, phenylthiocarbamide]", "values": [{"measurement": "activation over baseline", "setting": "fTAS2R38 [1]; 100 μM PTC, transient expression", "result": 81, "unit": "%"}, {"measurement": "activation over baseline", "setting": "fTAS2R38 [2]; 100 μM PTC", "result": 90, "unit": "%"}]}, {"smiles": "CCCN(CCC)S(=O)(=O)c1ccc(C(=O)O)cc1", "note": "[probenecid, p-(dipropylsulfamoyl)benzoic acid]", "values": [{"measurement": "inhibition of the response to PTC", "setting": "fTAS2R38 [1]; 1 mM probenecid, response of fTAS2R38 to PTC", "result": "inhibited"}, {"measurement": "inhibition of the response to aloin", "setting": "fTAS2R43; 1 mM probenecid, response of fTAS2R43 to aloin", "result": "inhibited"}, {"measurement": "inhibition of the response to denatonium", "setting": "fTAS2R43; 1 mM probenecid, response of fTAS2R43 to denatonium", "result": "inhibited"}]}, {"smiles": "O=C1NS(=O)(=O)c2ccccc21", "note": "[saccharin]", "values": [{"measurement": "stimulation of receptor", "setting": "fTAS2R43; 6.7 mM saccharin, transient expression", "result": "not stimulated"}]}]}
